How the values were obtained:
[1] = Fluorescence measurement of azido probe and EE2-probe adduct (spectrometer); type: physicochemical; conditions: excited at λ=319 nm; initial measurements
Description: A feature of the probes herein described is the means by which a readable fluorescent signal can be reliably detected once the azidonaphthalimidoyl probe (see Example 1, compound 3) reacts with EE2. Thus, fluorescent measurements can be conducted on azido probe 3 (Example 1) before and after its reaction with commercially available 17α-ethinylestradiol (EE2, 1) (FIG. 5). […] Thus, the fluorescence profile of the EE2-probe adduct 4 can be obtained at different concentrations in order to obtain the lowest limit of detection for this analytical approach (Panel 1 of FIG. 5). Once that lower limit has been determined, a second set of experiments can be undertaken to test the efficacy and fidelity of the Click reaction. […] After the overnight run, the samples can be extracted into an organic layer (CH2Cl2 or diethyl ether), evaporated, redissolved in the solvent of choice for the fluorescence measurements (e.g. H2O, or a combination of MeOH/H2O) and their fluorescent intensities measured. This second set of experiments is designed to test the real case scenario where the actual, unknown EE2 concentration in a given sample can be detected using the azido probe.
Once an azido probe as herein described (e.g. 3) is synthesized (Example 1), it can be reacted with commercially available EE2. […] The calculated Stokes' shift based on this preliminary measurements is Δλ=48 nm.

[2] = Visual fluorescence analysis with a UV lamp (long wavelength, 365 nm); type: physicochemical; conditions: λ=365 nm; equimolar solutions of probe and adduct
Description: Both vials contain equimolar amounts of the azido probe and EE2-probe adduct respectively.
Once an azido probe as herein described (e.g. 3) is synthesized (Example 1), it can be reacted with commercially available EE2. For example, reaction of azido probe 3 with EE2 in the presence of CuSO4.5H2O and sodium ascorbate in a 2:1 tert-butanol-water mixture at room temperature overnight yielded the triazole-containing EE2-probe adduct 4 in nearly quantitative yield (>95%) as an off-white solid after column chromatography. The use of another source of Cu(I) ion such as CuBr or CuI can be employed in this step, eliminating the need for sodium ascorbate. However, copper(I) halides can be avoided if a reduction in unwanted background fluorescence when using the spectrophotometer is desired. If a cost reduction is desired, instead of copper(I) halides readily available and inexpensive Cu(II) sulfate pentahydrate and sodium ascorbate can be purchased in multigram quantities and used in reactions with EE2. […] The calculated Stokes' shift based on this preliminary measurements is Δλ=48 nm.

**Q.** Which “fluorescence of the probe” value [1] does the source give for `[N-]=[N+]=Nc1ccc2c3c(cccc13)C(=O)N(CCOCCO)C2=O` [Probe 3] here?
**A.** The value was “marginal fluorescence”.

**Q.** And the “qualitative fluorescence under UV lamp” value [2]?
**A.** The value was “does not”.

— patent US9791463B2, “Methods for the selective detection of alkyne-presenting molecules and related compositions and systems” (Lawrence Livermore National Security, LLC, priority 2013, dated 2017)
